This assay addresses T1, Recombinant human KIF18A (1-467 His-tagged) protein (Homo sapiens, UniProt Q8NI77).
T1 construct: Recombinant human KIF18A (1-467 His-tagged) protein; His; made in house
Nature of the assay: KIF18A Enzyme Assay: microtubule-stimulated ATPase activity (ADP-Glo). The conditions noted are these: 30 nM KIF18A, 30 μg/mL pig microtubules, 75 μM ATP, ADP-Glo luminescence. In kind it is biochemical. In short, it runs like this:
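His-tagged human KIF18A (1-467, baculovirus), 30 nM, pre-incubated 15 min with compound in Tris pH 7.5 containing 30 μg/mL taxol-stabilised pig microtubules. ATP was then added at Km (75 μM) for 15 min at room temperature. ADP was measured by ADP-Glo luminescence, and IC50 was fitted by 4-parameter logistic over 22 points.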
On the technique in general: ADP-Glo turns the ADP formed in a reaction into a luminescent signal.
T1 sequence (Q8NI77 1-467): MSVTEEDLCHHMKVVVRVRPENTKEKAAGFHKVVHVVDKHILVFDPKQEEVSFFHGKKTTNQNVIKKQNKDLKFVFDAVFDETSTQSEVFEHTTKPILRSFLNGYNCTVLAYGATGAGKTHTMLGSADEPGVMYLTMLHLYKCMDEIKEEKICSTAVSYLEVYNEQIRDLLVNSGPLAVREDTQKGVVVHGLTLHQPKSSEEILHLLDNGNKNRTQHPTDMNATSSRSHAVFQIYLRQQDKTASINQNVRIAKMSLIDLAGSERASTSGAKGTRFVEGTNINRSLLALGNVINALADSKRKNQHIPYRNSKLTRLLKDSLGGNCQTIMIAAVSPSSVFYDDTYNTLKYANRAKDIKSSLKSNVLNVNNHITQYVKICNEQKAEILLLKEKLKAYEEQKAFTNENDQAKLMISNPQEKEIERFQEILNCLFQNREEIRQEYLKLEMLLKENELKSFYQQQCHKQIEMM
T1 sequence (P02550 whole entry partner): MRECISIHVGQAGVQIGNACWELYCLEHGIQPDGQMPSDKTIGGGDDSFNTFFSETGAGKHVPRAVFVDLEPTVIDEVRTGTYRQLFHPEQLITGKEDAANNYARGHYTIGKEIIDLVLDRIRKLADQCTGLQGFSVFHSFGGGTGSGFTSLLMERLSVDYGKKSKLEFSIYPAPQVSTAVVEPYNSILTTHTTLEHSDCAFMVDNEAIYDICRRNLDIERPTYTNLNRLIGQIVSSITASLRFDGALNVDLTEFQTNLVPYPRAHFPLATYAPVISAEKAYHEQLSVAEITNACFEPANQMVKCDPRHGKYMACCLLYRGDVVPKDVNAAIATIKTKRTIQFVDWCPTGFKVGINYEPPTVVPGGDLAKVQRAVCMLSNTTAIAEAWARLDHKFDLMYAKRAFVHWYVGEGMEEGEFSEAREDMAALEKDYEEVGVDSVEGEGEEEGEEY
T1 sequence (P02554 whole entry partner): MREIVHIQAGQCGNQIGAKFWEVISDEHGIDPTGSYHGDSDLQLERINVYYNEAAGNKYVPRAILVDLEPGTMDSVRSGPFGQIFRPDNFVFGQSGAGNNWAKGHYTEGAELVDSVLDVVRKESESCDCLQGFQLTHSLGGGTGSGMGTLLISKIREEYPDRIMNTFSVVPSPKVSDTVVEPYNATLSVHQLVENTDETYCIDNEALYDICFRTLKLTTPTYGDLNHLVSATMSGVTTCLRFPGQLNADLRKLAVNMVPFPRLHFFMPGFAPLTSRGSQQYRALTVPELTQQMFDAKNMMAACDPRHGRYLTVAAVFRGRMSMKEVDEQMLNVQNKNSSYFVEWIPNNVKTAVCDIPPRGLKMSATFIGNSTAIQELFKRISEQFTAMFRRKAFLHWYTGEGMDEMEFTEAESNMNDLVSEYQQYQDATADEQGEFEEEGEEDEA
Take `CC(C)(CO)Nc1ccc(C(=O)Nc2cccc(N3CC4(COC4)C3)n2)c(N2CCC3(CC2)CC3)n1` [Example 163, 2-(6-azaspiro[2.5]octan-6-yl)-6-((1-hydroxy-2-methyl-2-propanyl)amino)-N-(6-(2-oxa-6-azaspiro[3.3]heptan-6-yl)-2-pyridinyl)-3-pyridinecarboxamide]: the IC50 worked out at 159 nM. Consider `CC(CO)(CO)Nc1ccc(C(=O)Nc2cccc(Br)n2)c(N2CCC3(CC2)CC3)n1` [Example 164, 2-(6-azaspiro[2.5]octan-6-yl)-N-(6-bromo-2-pyridinyl)-6-((1,3-dihydroxy-2-methyl-2-propanyl)amino)-3-pyridinecarboxamide], for which the IC50 is 2750 nM. On to `C[C@@H]1CN(c2cccc(NC(=O)c3ccc(N4C(=O)OCC4(C)C)nc3N3CCC4(CC3)CC4)n2)CCO1` [Example 165, 2-(6-azaspiro[2.5]octan-6-yl)-6-(4,4-dimethyl-2-oxo-1,3-oxazolidin-3-yl)-N-(6-((2R)-2-methyl-4-morpholinyl)-2-pyridinyl)-3-pyridinecarboxamide], for which the concentration for half-maximal inhibition (IC50) is 663 nM. As for `C[C@@H]1CN(c2cccc(NC(=O)c3ccc(C(C)(O)CO)nc3N3CCC4(CC3)CC4)n2)CCO1` (stereo partly drawn) [Example 166, 6-(1,2-dihydroxypropan-2-yl)-N-(6-((R)-2-methylmorpholino)pyridin-2-yl)-2-(6-azaspiro[2.5]octan-6-yl)nicotinamide], the IC50 is 62.5 nM. In the case of `C[C@@H]1CN(c2cccc(NC(=O)c3ccc([C@](C)(O)CO)nc3N3CCC4(CC3)CC4)n2)CCO1` [Example 167, 2-(6-azaspiro[2.5]octan-6-yl)-6-((2S)-1,2-dihydroxy-2-propanyl)-N-(6-((2R)-2-methyl-4-morpholinyl)-2-pyridinyl)-3-pyridinecarboxamide], the IC50 stood at 82.2 nM.

As for `C[C@@H]1CN(c2cccc(NC(=O)c3ccc([C@@](C)(O)CO)nc3N3CCC4(CC3)CC4)n2)CCO1` [Example 168, 2-(6-azaspiro[2.5]octan-6-yl)-6-((2R)-1,2-dihydroxy-2-propanyl)-N-(6-((2R)-2-methyl-4-morpholinyl)-2-pyridinyl)-3-pyridinecarboxamide], the IC50 was 88.7 nM.

For `CC(C)(C)NS(=O)(=O)c1cccc(NC(=O)c2ccc(C(C)(O)CO)nc2N2CCC3(CC2)CC3)n1` (centres unmarked) [Example 169, N-(6-(N-(tert-butyl)sulfamoyl)pyridin-2-yl)-6-(1,2-dihydroxypropan-2-yl)-2-(6-azaspiro[2.5]octan-6-yl)nicotinamide], the IC50 came out at 89.3 nM.

Turning to `Cc1cc(NC(=O)c2ccc(NC(C)(C)CO)nc2N2CCC3(CC2)CC3)nc(NC(C)(C)CO)c1` [Example 170, 2-(6-azaspiro[2.5]octan-6-yl)-6-((1-hydroxy-2-methyl-2-propanyl)amino)-N-(6-((1-hydroxy-2-methyl-2-propanyl)amino)-4-methyl-2-pyridinyl)-3-pyridinecarboxamide], the IC50 worked out at 157 nM.

In the case of `CC(C)(C)NS(=O)(=O)c1cccc(NC(=O)c2ccc(F)nc2N2CCC3(CC2)CC3)n1` [Example 173, 2-(6-azaspiro[2.5]octan-6-yl)-6-fluoro-N-(6-((2-methyl-2-propanyl)sulfamoyl)-2-pyridinyl)-3-pyridinecarboxamide], the IC50 stood at 643 nM. Consider `CC(C)(C)NS(=O)(=O)c1cccc(NC(=O)c2ccc(NC(C)(CO)CO)nc2N2CCC3(CC2)CC3)n1` [Example 174, 2-(6-azaspiro[2.5]octan-6-yl)-6-((1,3-dihydroxy-2-methyl-2-propanyl)amino)-N-(6-((2-methyl-2-propanyl)sulfamoyl)-2-pyridinyl)-3-pyridinecarboxamide], for which the half-inhibitory concentration (IC50) stood at 62.2 nM. As for `C[C@@H]1COCCN1c1cccc(NC(=O)c2ccc(NC(C)(C)CO)nc2N2CCC3(CC2)CC3)n1` [Example 179, 2-(6-azaspiro[2.5]octan-6-yl)-6-((1-hydroxy-2-methyl-2-propanyl)amino)-N-(6-((3R)-3-methyl-4-morpholinyl)-2-pyridinyl)-3-pyridinecarboxamide], the IC50 came out at 98 nM. For the compound `CC1(C)OCC(c2ccc(C(=O)Nc3cccc(N4CCOCC4)n3)c(N3CCC4(CC3)CC4)n2)(C(F)(F)F)O1` (centres unmarked) [Example 180, 6-(2,2-dimethyl-4-(trifluoromethyl)-1,3-dioxolan-4-yl)-N-(6-morpholinopyridin-2-yl)-2-(6-azaspiro[2.5]octan-6-yl)nicotinamide], the half-inhibitory concentration (IC50) came out at 758 nM. As for `O=C(Nc1cccc(N2CCOCC2)n1)c1ccc(C(O)(CO)C(F)(F)F)nc1N1CCC2(CC1)CC2` (centres unmarked) [Example 181, N-(6-morpholinopyridin-2-yl)-2-(6-azaspiro[2.5]octan-6-yl)-6-(1,1,1-trifluoro-2,3-dihydroxypropan-2-yl)nicotinamide], the 50% inhibitory concentration (IC50) came to 69.9 nM. With `C[C@@H]1CN(c2cccc(NC(=O)c3ccc(C(O)(CO)C(F)(F)F)nc3N3CCC4(CC3)CC4)n2)CCO1` (stereo partly drawn) [Example 182, N-(6-((R)-2-methylmorpholino)pyridin-2-yl)-2-(6-azaspiro[2.5]octan-6-yl)-6-(1,1,1-trifluoro-2,3-dihydroxypropan-2-yl)nicotinamide], the IC50 is 79.5 nM. In the case of `C[C@H]1COCCN1c1cccc(NC(=O)c2ccc(NC(C)(C)CO)nc2N2CCC3(CC2)CC3)n1` [Example 183, 2-(6-azaspiro[2.5]octan-6-yl)-6-((1-hydroxy-2-methyl-2-propanyl)amino)-N-(6-((3S)-3-methyl-4-morpholinyl)-2-pyridinyl)-3-pyridinecarboxamide] it was 205 nM. In the case of `Cc1cc(NC(=O)c2ccc(NC(C)(CO)CO)nc2N2CCC3(CC2)CC3)nc(N2CCOCC2)c1` [Example 184, 2-(6-azaspiro[2.5]octan-6-yl)-6-((1,3-dihydroxy-2-methyl-2-propanyl)amino)-N-(4-methyl-6-(4-morpholinyl)-2-pyridinyl)-3-pyridinecarboxamide] it was 62 nM; in that of `CC(C)(CO)Nc1ccc(C(=O)Nc2cccc(N3CCN(C(=O)OC(C)(C)C)CC3)n2)c(N2CCC3(CC2)CC3)n1` [Example 185, 2-methyl-2-propanyl 4-(6-(((2-(6-azaspiro[2.5]octan-6-yl)-6-((1-hydroxy-2-methyl-2-propanyl)amino)-3-pyridinyl)carbonyl)amino)-2-pyridinyl)-1-piperazinecarboxylate], 592 nM. Take `CC(C)(CO)Nc1ccc(C(=O)Nc2cccc(N3CCOC(C(C)(C)O)C3)n2)c(N2CCC3(CC2)CC3)n1` (centres unmarked) [Example 186, 6-((1-hydroxy-2-methylpropan-2-yl)amino)-N-(6-(2-(2-hydroxypropan-2-yl)morpholino)pyridin-2-yl)-2-(6-azaspiro[2.5]octan-6-yl)nicotinamide]: the half-maximal inhibitory concentration (IC50) amounted to 365 nM.

On to `CC(C)N1CCN(c2cccc(NC(=O)c3ccc(NC(C)(C)CO)nc3N3CCC4(CC3)CC4)n2)CC1` [Example 188, 2-(6-azaspiro[2.5]octan-6-yl)-6-((1-hydroxy-2-methyl-2-propanyl)amino)-N-(6-(4-(2-propanyl)-1-piperazinyl)-2-pyridinyl)-3-pyridinecarboxamide], for which the IC50 stood at 2260 nM. With `CC(C)(CO)Nc1ccc(C(=O)Nc2cccc(N3CCO[C@H](CO)C3)n2)c(N2CCC3(CC2)CC3)n1` [Example 189, 2-(6-azaspiro[2.5]octan-6-yl)-N-(6-((2S)-2-(hydroxymethyl)-4-morpholinyl)-2-pyridinyl)-6-((1-hydroxy-2-methyl-2-propanyl)amino)-3-pyridinecarboxamide], the concentration for half-maximal inhibition (IC50) amounted to 110 nM.

As usually defined, the IC50 is the point on the concentration scale where inhibition reaches its midpoint.

The record behind these values is patent US12441736B2, “KIF18A inhibitors” (AMGEN INC., priority 2018, dated 2025).
